Patent US4593019A, “N^6 -tricyclic adenosines” (Warner-Lambert Company, priority 1984, dated 1986)

Legend:
[1] = target: T1, A1 receptor (Rattus norvegicus, UniProt P25099); test: Adenosine Receptor Binding - A1 Receptor Affinity (RBA1), [3H]-CHA displacement; details: 1.0 nM [3H]-CHA, rat brain membranes, pH 7.7, 25° C., 1 h; read-out: RBA-1 IC50 (adenosine A1 receptor affinity)
T1 construct: Whole brain minus cerebellum and brainstem from male Long Evans rats; from tissue; host or cells: rat whole brain minus cerebellum and brainstem (membranes)
T1 sequence (P25099 1-326): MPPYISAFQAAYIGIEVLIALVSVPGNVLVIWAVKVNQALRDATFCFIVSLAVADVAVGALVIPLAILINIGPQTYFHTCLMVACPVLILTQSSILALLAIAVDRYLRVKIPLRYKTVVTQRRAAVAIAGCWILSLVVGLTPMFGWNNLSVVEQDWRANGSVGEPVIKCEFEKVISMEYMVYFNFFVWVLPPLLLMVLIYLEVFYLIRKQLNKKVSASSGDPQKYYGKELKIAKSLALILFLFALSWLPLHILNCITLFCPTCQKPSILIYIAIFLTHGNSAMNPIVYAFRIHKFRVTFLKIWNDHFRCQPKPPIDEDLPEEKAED
Method: The supernatant was discarded, and the pellet was resuspended and centrifuged as before. […] Incubation volume was 2 ml. […] The radio-labeled ligand retained on the filter was measured by liquid scintillation spectrophotometry after shaking the filters for one hour or longer on a mechanical shaker in 10 ml of Beckman Ready-Solv HP scintillation cocktail. […] The maximal number of binding sites (Bmax) was calculated from the Scatchard plot.

[2] = target: T2, A2 receptor (Rattus norvegicus, UniProt P30543); test: Adenosine Receptor Binding - A2 Receptor Affinity (RBA2), [3H]NECA displacement; details: 4 nM [3H]NECA, 50 nM N6-cyclopentyladenosine, rat striatal membranes, 25° C., 60 min; read-out: RBA-2 IC50 (adenosine A2 receptor affinity)
T2 construct: 5 mg original tissue weight of rat weight of rat striatal membranes; tissue Pel-Freez (Rogers, Ark.); host or cells: rat striatum (membranes)
Method: Adenosine Receptor Binding--A2 Receptor Affinity (RBA2)
Brains from 200-500 g mixed sex Sprague-Dawley rats were purchased from Pel-Freez (Rogers, Ark.). […] Brains were thawed and then kept on ice while the striata were dissected out. […] The suspension was centrifuged at 50,000 xg for ten minutes, the supernatant discarded, the pellet resuspended in 10 vol ice-cold Tris as above, recentrifuged, resuspended at 1 g/5 ml, and stored in plastic vials at -70° C. […] When needed, tissue was thawed at room temperature, disrupted in a Polytron, and kept on ice until used. […]
Nonspecific binding was defined as binding in the presence of 100 μM N^6 -cyclopentyladenosine, and specific binding was defined as total binding minus nonspecific binding. The IC50 was calculated by weighted nonlinear least squares curve-fitting to the mass-action equation. […]
Weighting factors were calculated under the assumption that the standard deviation was proportional to the predicted value of Y. Nonspecific binding was treated as a very large (infinite) concentration of drug in the computer analysis.

[3] = Mouse Activity and Screen Test Procedure (MAST): inhibition of spontaneous locomotion; type: in vivo, mouse (male Swiss-Webster); details: one hour prior to testing, accumulated over one hour
Method: (§1) Nine unfasted Swiss-Webster male mice weighing 20-30 g are equally divided into three groups for each drug dose to be tested. That is, data for each dose level was generated by three separate groups of three mice each.
(§2) A minimum of three dose levels (10, 30, and 100 mg/kg) are tested for each drug. Treatments are administered intraperitoneally one hour prior to testing. All dosages are calculated as parent compound and given in volumes of 10 ml/kg. Compounds are dissolved or suspended in 0.2% Methocel. Control animals are injected with Methocel.
A two part testing procedure is started one hour postinjection. […] Briefly this test consists of placing mice on individual wire screens which are then rotated 180 degrees at the start of a 60 second observation period. The number of mice falling off the inverted screen is recorded.
The actophotometer consists of a cylindrical chamber whose center is occupied by another cylinder which contains the illumination for six photocells located on the perimeter of the chamber. Six light-beam interruptions equal one count. Locomotor activity is recorded by computer at ten minute intervals for 60 minutes.
The data obtained from the screen test are expressed as percent of mice falling off the screen. Data derived from locomotor activity of drug treated mice are compared to the activity of vehicle treated animals and are expressed as percent inhibition of spontaneous locomotion. All percentages reported for inhibition of locomotion (LI) are based upon data accumulated for one hour. […] An overall dose rating is obtained by the following criteria:
LAD refers to the lowest dose at which an A rating is achieved. […] The compounds are identified in the examples.

[4] = test system: mice; test: Mouse Activity and Screen Test Procedure (MAST): screen test failure; type: in vivo, mouse (male Swiss-Webster); details: one hour postinjection
Description: The compounds of the invention are new chemical substances which are useful as pharmaceutical agents for the treatment of psychoses. The antipsychotic activity of representative compounds of the invention was established by the Mouse Activity and Screen Test Procedure (MAST) described below.
as §1, §2
A two part testing procedure is started one hour postinjection. First, the screen test (ST) is performed (see Pharmac. Biochem. Behav. 6, 351-353, 1977). Briefly this test consists of placing mice on individual wire screens which are then rotated 180 degrees at the start of a 60 second observation period. The number of mice falling off the inverted screen is recorded.
The data obtained from the screen test are expressed as percent of mice falling off the screen. Data derived from locomotor activity of drug treated mice are compared to the activity of vehicle treated animals and are expressed as percent inhibition of spontaneous locomotion. All percentages reported for inhibition of locomotion (LI) are based upon data accumulated for one hour. Both phases of testing are graded: A=60-100%; C=31-59%; and N=0-30%. An overall dose rating is obtained by the following criteria: […]

[5] = Antihypertensive evaluation (AHP3): direct monitoring of aortic blood pressure and heart rate in conscious rats; type: in vivo; details: 10 mg/kg, conscious rat
Method: This test procedure is described in the following paragraphs.
The continuous monitoring of pulsatile blood pressure (BP) from unrestrained conscious rats surgically equipped with polyethylene cannulas was accomplished by means of a computer assisted data capture scheme (CADCS). The basic elements of the methodology are the cannulation procedure and the CADCS.
Cannulation Procedure: Rats were anesthetized with Telazol (1:1 tiletamine HCl and zolazepam HCl); 20-40 mg/kg IM and the descending aorta exposed via a midline incision. Cannulas fabricated from polyethylene tubing were inserted into the aorta via an undersized puncture hole below the renal arteries. The puncture hole was made by a 23 G disposable needle with a section of the aorta clamped off above and below the puncture site. The cannulas, consisting of a PE100 (0.86 mm ID) body and a PE50 (0.58 mm ID) tip, were attached to a trocar, inserted through the psoas muscle, and passed subcutaneously along the midline of the back and externalized between the ears. The cannulas were anchored to the psoas muscle and between the scalulae (3-0 green braided suture). The midline incision was closed in two steps (muscle first, skin second) using continuous over-and over sutures (4-0 chronic). Each rat was then given penicillin 30,000 units subcutaneously (Penicillin G Procaine Sterile Suspension).
The rats were fitted with a harness-spring-swivel assembly designed to protect the cannula and to provide the rat relative freedom of movement. The harnesses were fabricated from nylon hook and loop tape cemented to a metal plate to which spring wires (18-8 stainless steel), were attached to brass swivels. […] While on test, each rat received a continuous slow infusion of heparinized saline solution (approximately […] or 40 units of heparin per 24 hour period) to prevent clot formation. Additional "flushes" of the cannula with heparinized saline were carried out when the aortic pulse pressure (systolic minus diastolic) was less than 25 mm Hg.
CADCS: The pulsatile blood pressure and heart rate of each of 32 rats was monitored every minute by means of two in-laboratory microcomputers communicating directly with a data concentrator computer. The data were first stored on the data concentrator disk and then transferred to a magnetic tape for analysis and report generation by the main research computer. The overall scheme involved modulating the primary signal from the pressure transducer, generating the primary data set of the one-minute values for systolic, diastolic, and mean blood pressures and heart rate by the in-lab microcomputer and the storage, analysis, and report generation by the main reserach computer.
The transducers were connected to analog signal conditioning modules. The modules provided a regulated excitation voltage for the transducers, amplification as required to interface the microprocessors and an active low pass filter to compensate for the pressure wave form distortion produced by the flexible, fluid filled, narrow cannula.
The microcomputers (one for each of two groups of 16 rats) were connected to the input components through the module interface units, an analog-to-digital converter for the pressure wave form signal and the digital inputs for the dose and event marker switches. The microcomputer controlled the sequential acquisition of data from the modular interface units through an internal synchronous time-of-day clock/time base generator. Utilizing the time base generator as a reference, the blood pressure values and the marker switch status for each of the 32 stations were sampled every ten msec. The microcomputer processed each blood pressure sample as it was received to produce "running average" values for heart rate, and mean, systolic and diastolic blood pressures.

T2 sequence (P30543 whole entry): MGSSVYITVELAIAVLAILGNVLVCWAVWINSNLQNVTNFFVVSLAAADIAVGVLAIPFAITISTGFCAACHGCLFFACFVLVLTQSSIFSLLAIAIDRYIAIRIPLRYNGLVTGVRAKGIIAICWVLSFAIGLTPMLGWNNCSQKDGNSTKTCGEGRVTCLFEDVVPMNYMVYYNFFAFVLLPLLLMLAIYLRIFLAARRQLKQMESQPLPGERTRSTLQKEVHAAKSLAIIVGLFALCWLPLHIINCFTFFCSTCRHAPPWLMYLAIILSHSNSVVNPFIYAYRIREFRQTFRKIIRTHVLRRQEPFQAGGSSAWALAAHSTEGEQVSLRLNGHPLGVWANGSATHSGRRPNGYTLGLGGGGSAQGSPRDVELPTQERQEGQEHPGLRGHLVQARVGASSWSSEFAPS

| IC50 [1] [µM] | IC50 [2] [µM] | Screen Test Failure (percent of mice falling off the screen) ([4]; 10 mg/kg i.p.) [%] | Screen Test Failure (percent of mice falling off the screen) ([4]; 30 mg/kg i.p.) [%] | Screen Test Failure (percent of mice falling off the screen) ([4]; 100 mg/kg i.p.) [%] | SMILES | Inhibition of Mouse Locomotion Activity ([3]; 10 mg/kg i.p.) [%] | Inhibition of Mouse Locomotion Activity ([3]; 30 mg/kg i.p.) [%] | Inhibition of Mouse Locomotion Activity ([3]; 100 mg/kg i.p.) [%] | Inhibition of Mouse Locomotion Activity ([3]; 1 mg/kg i.p.) [%] | Inhibition of Mouse Locomotion Activity ([3]; 3 mg/kg i.p.) [%] | Screen Test Failure (percent of mice falling off the screen) ([4]; 1 mg/kg i.p.) [%] | Screen Test Failure (percent of mice falling off the screen) ([4]; 3 mg/kg i.p.) [%] | HR ↑ (increase in heart rate) ([5]; 1 hour) [%] | MAP ↓ (decrease in mean arterial blood pressure) ([5]; 1 hour) [%] | HR ↑ (increase in heart rate) ([5]; 3 hours) [%] | MAP ↓ (decrease in mean arterial blood pressure) ([5]; 3 hours) [%] | HR ↑ (increase in heart rate) ([5]; 5 hours) [%] | MAP ↓ (decrease in mean arterial blood pressure) ([5]; 5 hours) [%] | HR ↑ (increase in heart rate) ([5]; 7 hours) [%] | MAP ↓ (decrease in mean arterial blood pressure) ([5]; 7 hours) [%] | also measured |
| --- | --- | --- | --- | --- | --- | --- | --- | --- | --- | --- | --- | --- | --- | --- | --- | --- | --- | --- | --- | --- | --- |
| 8.6 | 51 | 0 | 0 | 0 | OC[C@H]1O[C@@H](n2cnc3c(NC4c5ccccc5-c5ccccc54)ncnc32)[C@H](O)[C@@H]1O [Example 1] | 41 | 60 | 68 |  |  |  |  |  |  |  |  |  |  |  |  |  |
| 0.435 |  |  |  |  | OC[C@H]1O[C@@H](n2cnc3c(NCCC4c5ccccc5-c5ccccc54)ncnc32)[C@H](O)[C@@H]1O [Example 3, N^6 -Fluorenylethyl adenosine] |  |  |  |  |  |  |  |  |  |  |  |  |  |  |  |  |
| 0.085 | 0.065 | 0 | 11 | 44 | OC[C@H]1O[C@@H](n2cnc3c(NCC4c5ccccc5Oc5ccccc54)ncnc32)[C@H](O)[C@@H]1O [Example 4, N^6-[Xanthene-9-methylamino]adenosine] | 72 | 91 | 91 | -5 | 17 | 0 | 0 | 16 | 11 | 19 | 4 | 25 | 8 | 15 | 12 | HR ↑ (increase in heart rate) ([5]; 9 hours): 18%; MAP ↓ (decrease in mean arterial blood pressure) ([5]; 9 hours): 8% |

| SMILES | IC50 [1] [µM] | IC50 [2] [µM] | Screen Test Failure (percent of mice falling off the screen) ([4]; 10 mg/kg i.p.) [%] | Screen Test Failure (percent of mice falling off the screen) ([4]; 30 mg/kg i.p.) [%] | Screen Test Failure (percent of mice falling off the screen) ([4]; 100 mg/kg i.p.) [%] | Inhibition of Mouse Locomotion Activity ([3]; 10 mg/kg i.p.) [%] | Inhibition of Mouse Locomotion Activity ([3]; 30 mg/kg i.p.) [%] | Inhibition of Mouse Locomotion Activity ([3]; 100 mg/kg i.p.) [%] | Inhibition of Mouse Locomotion Activity ([3]; 1 mg/kg i.p.) [%] | Inhibition of Mouse Locomotion Activity ([3]; 3 mg/kg i.p.) [%] | Screen Test Failure (percent of mice falling off the screen) ([4]; 1 mg/kg i.p.) [%] | Screen Test Failure (percent of mice falling off the screen) ([4]; 3 mg/kg i.p.) [%] | HR ↑ (increase in heart rate) ([5]; 1 hour) [%] | MAP ↓ (decrease in mean arterial blood pressure) ([5]; 1 hour) [%] | HR ↑ (increase in heart rate) ([5]; 3 hours) [%] | MAP ↓ (decrease in mean arterial blood pressure) ([5]; 3 hours) [%] | HR ↑ (increase in heart rate) ([5]; 5 hours) [%] | MAP ↓ (decrease in mean arterial blood pressure) ([5]; 5 hours) [%] | HR ↑ (increase in heart rate) ([5]; 7 hours) [%] | MAP ↓ (decrease in mean arterial blood pressure) ([5]; 7 hours) [%] | also measured |
| --- | --- | --- | --- | --- | --- | --- | --- | --- | --- | --- | --- | --- | --- | --- | --- | --- | --- | --- | --- | --- | --- |
| OC[C@H]1O[C@@H](n2cnc3c(NCC4c5ccccc5-c5ccccc54)ncnc32)[C@H](O)[C@@H]1O [Example 2] |  |  | 44 | 55 | 55 | 97 | 97 | 91 | 56 | 94 | 11 | 33 | 24 | 32 | 27 | 32 | 20 | 34 | 13 | 28 | HR ↑ (increase in heart rate) ([5]; 9 hours): 13%; MAP ↓ (decrease in mean arterial blood pressure) ([5]; 9 hours): 30% |
